Measured values taken from patent EP0260744B1, “(1H-imidazol-1-ylmethyl) substituted benzimidazole derivatives” (JANSSEN PHARMACEUTICA N.V., priority 1986, dated 1988).

System: Plasma testosterone concentrations
Assay: Testosterone in vivo test
Conditions: Rattus norvegicus, 2 h; male rats, oral; LHRH-analogue i.m. after one hour; plasma testosterone two hours after administration; 50% inhibition relative to placebo
Protocol: Male rats were administered orally a test compound as a solution or as a suspension in aqueous medium. One hour following drug or placebo administration, a luteinizing hormone releasing hormone- analogue was injected intramuscularly and an anaesthetic was administered intraperitonally. Two hours after the oral administration of the test compound the rats were decapitated, and the blood was collected on heparine. Plasma testosterone concentrations were measured by standard radio-immunological procedures. A 50% inhibition relative to the placebo values was considered as the criterion of testosterone inhibitory activity. ED50-values were determined by probit analysis.

Structure (SMILES)	ED50
Cn1cnc2cc(C(c3ccccc3)n3ccnc3)ccc21 (centres unmarked) [Compound 28]	2.5 mg/kg
Cn1c(-c2ccccc2)nc2ccc(C(c3ccccc3)n3ccnc3)cc21 (centres unmarked) [Compound 30]	2.5 mg/kg
c1csc(C(c2ccc3[nH]c(-c4cscn4)nc3c2)n2ccnc2)c1 (centres unmarked) [Compound 34]	2.5 mg/kg
COc1ccc(-c2nc3cc(C(c4ccccc4)n4ccnc4)ccc3[nH]2)cc1 (centres unmarked) [Compound 49]	< 2.5 mg/kg
c1cn(Cc2ccc3[nH]c(-c4cscn4)nc3c2)cn1 [Compound 51]	2.5 mg/kg
Nc1ncccc1-c1nc2cc(Cn3ccnc3)ccc2[nH]1 [Compound 53]	2.5 mg/kg
CCC(c1ccc2[nH]c(-c3ccccc3)nc2c1)n1ccnc1 (centres unmarked) [Compound 54]	2.5 mg/kg
c1ccc2c(Cc3nc4cc(Cn5ccnc5)ccc4[nH]3)c[nH]c2c1 [Compound 71]	2.5 mg/kg
CC(c1ccc2[nH]c(C(F)F)nc2c1)n1ccnc1 (centres unmarked) [Compound 78]	< 2.5 mg/kg
CCC(c1ccc2[nH]c(C(F)(F)F)nc2c1)n1ccnc1 (centres unmarked) [Compound 83, 5-[1-(1 H-imidazol-1-yl)propyl]-2-(trifluoromethyl)-1 H-benzimidazole]	< 2.5 mg/kg
CC(C)C(c1ccc2[nH]c(C(F)(F)F)nc2c1)n1ccnc1 (centres unmarked) [Compound 84, 5-[1-(1 H-imidazol-1-yl)-2-methylpropyl]-2-(trifluoromethyl)-1 H-benzimidazole ethanedioate(1:1).hemihydrate]	< 2.5 mg/kg
Fc1ccccc1-c1nc2ccc(C(c3ccccc3)n3ccnc3)cc2[nH]1 (centres unmarked) [Compound 92, 2-(2-fluorophenyl)-5-[(1 H-imidazol-1-yl)phenylmethyl]-1H-benzimidazole ethanedioate(2:3)]	< 2.5 mg/kg
Clc1cccc(C(c2ccc3[nH]cnc3c2)n2ccnc2)c1 (centres unmarked) [Compound 93, 5-[(3-chlorophenyl)-(1 H-imidazol-1-yl)methyl]-1 H-benzimidazole]	2.5 mg/kg
c1ccc(Cn2cnc3ccc(Cn4ccnc4)cc32)cc1 [Compound 102]	< 2.5 mg/kg
c1ccc(C(c2ccc3[nH]cnc3c2)n2ccnc2)cc1 (centres unmarked) [Compound 111, 5-[(1 H-imidazol-1-yl)phenylmethyl]-1 H-benzimidazole]	< 10 mg/kg
c1cncc(C(c2ccc3[nH]cnc3c2)n2ccnc2)c1 (centres unmarked) [Compound 112, 5-[(1 H-imidazol-1-yl)(3-pyridinyl)methyl]-1 H-benzimidazole]	2.5 mg/kg
c1csc(C(c2ccc3[nH]cnc3c2)n2ccnc2)c1 (centres unmarked) [Compound 113, 5-[(1H-imidazol-1-yl)(2-thienyl)methyl]-1H-benzimidazole]	< 10 mg/kg
COc1nc2cc(C(c3ccccc3)n3ccnc3)ccc2[nH]1 (centres unmarked) [Compound 115, 5-[(1 H-imidazol-1-yl)phenylmethyl]-2-methoxy-1 H-benzimidazole]	2.5 mg/kg
CCC(c1ccc2[nH]cnc2c1)n1ccnc1.Cl.Cl (centres unmarked) [Compound 119, 5-[1-(1 H-imidazol-1-yl)propyl]-1 H-benzimidazole dihydrochloride]	2.5 mg/kg

Structure (SMILES)	ED50
Cc1nc2cc(C(c3cccc(Cl)c3)n3ccnc3)ccc2[nH]1 (centres unmarked) [Compound 122, 5-[(3-chlorophenyl)(1 H-imidazol-1-yl)methyl]-2-methyl-1 H-benzimidazole]	2.5 mg/kg
Cc1nc2cc(C(c3cccs3)n3ccnc3)ccc2[nH]1 (centres unmarked) [Compound 125]	2.5 mg/kg
Cc1nc2cc(C(c3ccc(Cl)cc3Cl)n3ccnc3)ccc2[nH]1 (centres unmarked) [Compound 127]	10 mg/kg
CCCCCc1nc2cc(Cn3ccnc3)ccc2[nH]1 [Compound 133]	< 2.5 mg/kg
CCCCCc1nc2cc(C(c3ccccc3)n3ccnc3)ccc2[nH]1 (centres unmarked) [Compound 136]	< 2.5 mg/kg
Fc1cccc(-c2nc3cc(Cn4ccnc4)ccc3[nH]2)c1 [Compound 141]	2.5 mg/kg
Fc1ccc(-c2nc3cc(Cn4ccnc4)ccc3[nH]2)cc1 [Compound 142]	2.5 mg/kg
Cc1nc2cc(C(C(C)C)n3ccnc3)ccc2n1C (centres unmarked) [Compound 160]	2.5 mg/kg
Cc1ccc(-c2nc3cc(C(c4ccccc4)n4ccnc4)ccc3[nH]2)cc1 (centres unmarked) [Compound 173]	< 2.5 mg/kg
Fc1ccc(-c2nc3cc(C(c4ccccc4)n4ccnc4)ccc3[nH]2)cc1 (centres unmarked) [Compound 174]	< 2.5 mg/kg
Cc1nc2cc(C(C(C)C)n3ccnc3)ccc2[nH]1 (centres unmarked) [Compound 182]	2.5 mg/kg
CC(c1ccc2[nH]c(-c3cccnc3)nc2c1)n1ccnc1 (centres unmarked) [Compound 189, 5-[1-(1H-imidazol-1-yl)ethyl]-2-(3-pyridinyl)-1H-benzimidazole]	2.5 mg/kg
c1ccc(C(c2ccc3[nH]c(-c4cccnc4)nc3c2)n2ccnc2)cc1 (centres unmarked) [Compound 190, 5-[(1 H-imidazol-1-yl)phenylmethyl]-2-(3-pyridinyl)-1H-benzimidazole]	10 mg/kg
Cc1nc2cc(C(C)n3ccnc3)ccc2[nH]1.Cl.Cl (centres unmarked) [Compound 206, 5-[1-(1 H-imidazol-1-yl)ethyl]-2-methyl-1 H-benzimidazole dihydrochloride]	< 2.5 mg/kg
Cn1c(O)nc2cc(Cn3ccnc3)ccc21 [Compound 222, 5-(1 H-imidazol-1-ylmethyl)-1-methyl-1 H-benzimidazol-2-ol]	< 2.5 mg/kg
COn1c(-c2ccccc2)nc2ccc(Cn3ccnc3)cc21 [Compound 227, 6-(1 H-imidazol-1-ylmethyl)-1-methoxy-2-phenyl-1 H-benzimidazole]	2.5 mg/kg
COn1c(-c2cccnc2)nc2ccc(Cn3ccnc3)cc21 [Compound 229]	2.5 mg/kg
COn1c(C)nc2ccc(C(c3ccccc3)n3ccnc3)cc21 (centres unmarked) [Compound 231]	2.5 mg/kg
COn1c(-c2ccc(F)cc2)nc2ccc(C(C)n3ccnc3)cc21 (centres unmarked) [Compound 235]	2.5 mg/kg
